Usually IC50 stands for the point on the concentration scale where inhibition reaches its midpoint.

The target of this test is T1, Recombinant human EP300 containing the bromodomain (EP300-BD (1040-1161)) (Homo sapiens, UniProt Q09472).
T1 construct: Recombinant human EP300 bromodomain (EP300-BD (1040-1161)); made in house; host or cells: E. coli BL21-CodonPlus (DE3), modified pET vector
T1 sequence (Q09472 1040-1161): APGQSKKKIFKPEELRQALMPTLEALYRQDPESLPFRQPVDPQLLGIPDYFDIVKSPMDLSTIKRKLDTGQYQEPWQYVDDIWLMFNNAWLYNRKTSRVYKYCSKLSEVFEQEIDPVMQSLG
The experiment in a line: EP300 Alphascreen binding assay. The essentials: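 Displacement of a biotinylated acetyl-K56 histone H3 peptide from the N-His bromodomain construct (1040-1161) measured by AlphaScreen proximity, beads at 7.5 μg/ml final, read 60 min after addition. Protein, peptide and compound first incubated 1 h at room temperature, pH 7.5 HEPES buffer; IC50 by four-parameter logistic fit.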

`Cc1noc(C)c1-c1cnc2c(c1)c(-c1ccc(C(=O)O)cc1OC1CC1)cn2-c1ncccc1C#N` [P-0337, 4-(1-(3-cyanopyridin-2-yl)-5-(3,5-dimethylisoxazol-4-yl)-1H-pyrrolo[2,3-b]pyridin-3-yl)-3-cyclopropoxybenzoic acid]: the IC50 lay within 0.0001 to 1 µM.
Take `Cc1noc(C)c1-c1cnc2c(c1)c(-c1ccc(C(=O)O)cc1OCC(F)F)cn2C(C1CC1)C1CC1` [P-0338, 4-(1-(dicyclopropylmethyl)-5-(3,5-dimethylisoxazol-4-yl)-1H-pyrrolo[2,3-b]pyridin-3-yl)-3-(2,2-difluoroethoxy)benzoic acid]: the IC50 was 0.0001 to 1 µM.
In the case of `COc1cc(C(=O)O)ncc1-c1cn(C(C2CC2)C2CC2)c2ncc(-c3c(C)noc3C)cc12` [P-0339, 5-(1-(dicyclopropylmethyl)-5-(3,5-dimethylisoxazol-4-yl)-1H-pyrrolo[2,3-b]pyridin-3-yl)-4-methoxypicolinic acid], the IC50 lay in the range of 0.0001 to 1 µM.
In the case of `Cc1noc(C)c1-c1cnc2c(c1)c(-c1c(Cl)cc(C(=O)O)cc1OCC(F)F)cn2C(C1CC1)C1CC1` [P-0340, 3-chloro-4-(1-(dicyclopropylmethyl)-5-(3,5-dimethylisoxazol-4-yl)-1H-pyrrolo[2,3-b]pyridin-3-yl)-5-(2,2-difluoroethoxy)benzoic acid], the IC50 lay within 0.0001 to 1 µM.
The figure for `Cc1noc(C)c1-c1cnc2c(c1)c(-c1ccc(C(=O)O)cc1OC1CCC1)cn2C1CCOCC1` [P-0341, 3-cyclobutoxy-4-(5-(3,5-dimethylisoxazol-4-yl)-1-(tetrahydro-2H-pyran-4-yl)-1H-pyrrolo[2,3-b]pyridin-3-yl)benzoic acid] is 0.0001 to 1 µM; for `Cc1noc(C)c1-c1cnc2c(c1)c(-c1ccc(C(=O)O)cc1OC(C)C)c(C)n2C(C1CC1)C1CC1` [P-0342, 4-(1-(dicyclopropylmethyl)-5-(3,5-dimethylisoxazol-4-yl)-2-methyl-1H-pyrrolo[2,3-b]pyridin-3-yl)-3-isopropoxybenzoic acid] it is 0.0001 to 1 µM.
Consider `Cc1noc(C)c1-c1cnc2c(c1)c(-c1ccc(C(=O)O)cc1OC(F)(F)F)c(C)n2C(C1CC1)C1CC1` [P-0343, 4-(1-(dicyclopropylmethyl)-5-(3,5-dimethylisoxazol-4-yl)-2-methyl-1H-pyrrolo[2,3-b]pyridin-3-yl)-3-(trifluoromethoxy)benzoic acid], for which the IC50 lay in the range of 0.0001 to 1 µM.
As for `Cc1noc(C)c1-c1ccc2c(c1)c(-c1ccc(C(=O)O)cc1OC(F)(F)F)cn2C(C1CC1)C1CC1` [P-0344, 4-(1-(dicyclopropylmethyl)-5-(3,5-dimethylisoxazol-4-yl)-1H-indol-3-yl)-3-(trifluoromethoxy)benzoic acid], the IC50 lay within 0.0001 to 1 µM.
The figure for `Cc1noc(C)c1-c1cnc2c(c1)c(-c1ccc(C(=O)O)cc1OC(F)(F)F)c(C)n2-c1ncccc1C#N` [P-0345, 4-(1-(3-cyanopyridin-2-yl)-5-(3,5-dimethylisoxazol-4-yl)-2-methyl-1H-pyrrolo[2,3-b]pyridin-3-yl)-3-(trifluoromethoxy)benzoic acid] is 0.0001 to 1 µM.
For the compound `Cc1noc(C)c1-c1cnc2c(c1)c(-c1c(Cl)cc(C(=O)O)cc1OC(F)(F)F)cn2[C@H]1CCOC1` [P-0346, (S)-3-chloro-4-(5-(3,5-dimethylisoxazol-4-yl)-1-(tetrahydrofuran-3-yl)-1H-pyrrolo[2,3-b]pyridin-3-yl)-5-(trifluoromethoxy)benzoic acid], the concentration for half-maximal inhibition (IC50) was in the range of 0.0001 to 1 µM.
Take `Cc1noc(C)c1-c1cnc2c(c1)c(-c1ccc(C(=O)O)cc1OC1CCC1)cn2-c1cnc(N2CCC2)nc1` [P-0347, 4-(1-(2-(azetidin-1-yl)pyrimidin-5-yl)-5-(3,5-dimethylisoxazol-4-yl)-1H-pyrrolo[2,3-b]pyridin-3-yl)-3-cyclobutoxybenzoic acid]: the half-inhibitory concentration (IC50) lay in the range of 0.0001 to 1 µM.
For the compound `Cc1noc(C)c1-c1cnc2c(c1)c(-c1c(F)cc(C(=O)O)cc1OCC(F)F)cn2-c1cnc(N2CCC2)nc1` [P-0348, 4-(1-(2-(azetidin-1-yl)pyrimidin-5-yl)-5-(3,5-dimethylisoxazol-4-yl)-1H-pyrrolo[2,3-b]pyridin-3-yl)-3-(2,2-difluoroethoxy)-5-fluorobenzoic acid], the IC50 lay in the range of 0.0001 to 1 µM.
`Cc1nn(C(F)F)cc1-n1cc(-c2ccc(C(=O)O)cc2OCC(F)F)c2cc(-c3c(C)noc3C)cnc21` [P-0349, 3-(2,2-difluoroethoxy)-4-(1-(1-(difluoromethyl)-3-methyl-1H-pyrazol-4-yl)-5-(3,5-dimethylisoxazol-4-yl)-1H-pyrrolo[2,3-b]pyridin-3-yl)benzoic acid]: the half-inhibitory concentration (IC50) was 0.0001 to 1 µM.
Turning to `Cc1noc(C)c1-c1cnc2c(c1)c(-c1ccc(C(=O)O)cc1OC1CCC1)cn2[C@H]1CCOC1` [P-0350, (S)-3-cyclobutoxy-4-(5-(3,5-dimethylisoxazol-4-yl)-1-(tetrahydrofuran-3-yl)-1H-pyrrolo[2,3-b]pyridin-3-yl)benzoic acid], the concentration for half-maximal inhibition (IC50) was 0.0001 to 1 µM.
`Cc1nn(C(F)F)cc1-n1cc(-c2ccc(C(=O)O)cc2OC2CCC2)c2cc(-c3c(C)noc3C)cnc21` [P-0351, 3-cyclobutoxy-4-(1-(1-(difluoromethyl)-3-methyl-1H-pyrazol-4-yl)-5-(3,5-dimethylisoxazol-4-yl)-1H-pyrrolo[2,3-b]pyridin-3-yl)benzoic acid]: the half-maximal inhibitory concentration (IC50) lay within 0.0001 to 1 µM.
The result for `Cc1noc(C)c1-c1cnc2c(c1)c(-c1c(Cl)cc(C(=O)O)cc1OCC(F)F)cn2-c1cnn(C(F)F)c1C` [P-0352, 3-chloro-5-(2,2-difluoroethoxy)-4-(1-(1-(difluoromethyl)-5-methyl-1H-pyrazol-4-yl)-5-(3,5-dimethylisoxazol-4-yl)-1H-pyrrolo[2,3-b]pyridin-3-yl)benzoic acid] reads 0.0001 to 1 µM; that for `Cc1noc(C)c1-c1cnc2c(c1)c(-c1ccc(C(=O)O)cc1OC1CCC1)cn2-c1cnn(C(F)F)c1C` [P-0353, 3-cyclobutoxy-4-(1-(1-(difluoromethyl)-5-methyl-1H-pyrazol-4-yl)-5-(3,5-dimethylisoxazol-4-yl)-1H-pyrrolo[2,3-b]pyridin-3-yl)benzoic acid], 0.0001 to 1 µM.
For `Cc1noc(C)c1-c1cnc2c(c1)c(-c1ccc(C(=O)O)cc1OC(C)C)cn2-c1cnn(C(F)F)c1C` [P-0354, 4-(1-(1-(difluoromethyl)-5-methyl-1H-pyrazol-4-yl)-5-(3,5-dimethylisoxazol-4-yl)-1H-pyrrolo[2,3-b]pyridin-3-yl)-3-isopropoxybenzoic acid], the 50% inhibitory concentration (IC50) is 0.0001 to 1 µM.
The figure for `Cc1noc(C)c1-c1cnc2c(c1)c(-c1c(Cl)cc(C(=O)O)cc1OC(F)(F)F)cn2C1CCOCC1` [P-0355, 3-chloro-4-(5-(3,5-dimethylisoxazol-4-yl)-1-(tetrahydro-2H-pyran-4-yl)-1H-pyrrolo[2,3-b]pyridin-3-yl)-5-(trifluoromethoxy)benzoic acid] is 0.0001 to 1 µM.
As to `Cc1noc(C)c1-c1cnc2c(c1)c(-c1c(Cl)cc(C(=O)O)cc1OC1CCC1)cn2C(C1CC1)C1CC1` [P-0356, 3-chloro-5-cyclobutoxy-4-(1-(dicyclopropylmethyl)-5-(3,5-dimethylisoxazol-4-yl)-1H-pyrrolo[2,3-b]pyridin-3-yl)benzoic acid], the concentration for half-maximal inhibition (IC50) lay in the range of 0.0001 to 1 µM.
For the compound `Cc1noc(C)c1-c1cnc2c(c1)c(-c1ccc(C(=O)O)cc1OC(C)C)cn2C1CCOCC1` [P-0357, 4-(5-(3,5-dimethylisoxazol-4-yl)-1-(tetrahydro-2H-pyran-4-yl)-1H-pyrrolo[2,3-b]pyridin-3-yl)-3-isopropoxybenzoic acid], the IC50 is 0.0001 to 1 µM.
Consider `Cc1noc(C)c1-c1cnc2c(c1)c(-c1c(Cl)cc(C(=O)O)cc1OC1CCC1)cn2C1CCOCC1` [P-0358, 3-chloro-5-cyclobutoxy-4-(5-(3,5-dimethylisoxazol-4-yl)-1-(tetrahydro-2H-pyran-4-yl)-1H-pyrrolo[2,3-b]pyridin-3-yl)benzoic acid], for which the IC50 fell in the range of 0.0001 to 1 µM.
Regarding `Cc1noc(C)c1-c1cnc2c(c1)c(-c1c(Cl)cc(C(=O)O)cc1OCC(F)F)cn2C1CCOCC1` [P-0359, 3-chloro-5-(2,2-difluoroethoxy)-4-(5-(3,5-dimethylisoxazol-4-yl)-1-(tetrahydro-2H-pyran-4-yl)-1H-pyrrolo[2,3-b]pyridin-3-yl)benzoic acid], the 50% inhibitory concentration (IC50) lay within 0.0001 to 1 µM.
Regarding `CCOc1cc(C(=O)O)c(F)cc1-c1cn([C@H]2CCOC2)c2ncc(-c3c(C)noc3C)cc12` [P-0360, (S)-4-(5-(3,5-dimethylisoxazol-4-yl)-1-(tetrahydrofuran-3-yl)-1H-pyrrolo[2,3-b]pyridin-3-yl)-5-ethoxy-2-fluorobenzoic acid], the IC50 lay within 0.0001 to 1 µM.
Consider `Cc1noc(C)c1-c1cnc2c(c1)c(-c1c(Cl)cc(C(=O)O)cc1OC1CCC1)cn2[C@H]1CCOC1` [P-0361, (S)-3-chloro-5-cyclobutoxy-4-(5-(3,5-dimethylisoxazol-4-yl)-1-(tetrahydrofuran-3-yl)-1H-pyrrolo[2,3-b]pyridin-3-yl)benzoic acid], for which the IC50 fell in the range of 0.0001 to 1 µM.
`COc1cc(C(=O)O)ncc1-c1cn(C2CCOCC2)c2ncc(-c3c(C)noc3C)cc12` [P-0362, 5-(5-(3,5-dimethylisoxazol-4-yl)-1-(tetrahydro-2H-pyran-4-yl)-1H-pyrrolo[2,3-b]pyridin-3-yl)-4-methoxypicolinic acid]: the 50% inhibitory concentration (IC50) lay in the range of 0.0001 to 1 µM.
Turning to `Cc1noc(C)c1-c1cnc2c(c1)c(-c1c(Cl)cc(C(=O)O)cc1OC1CC1)cn2C(C1CC1)C1CC1` [P-0363, 3-chloro-5-cyclopropoxy-4-(1-(dicyclopropylmethyl)-5-(3,5-dimethylisoxazol-4-yl)-1H-pyrrolo[2,3-b]pyridin-3-yl)benzoic acid], the IC50 was 0.0001 to 1 µM.
With `Cc1noc(C)c1-c1cnc2c(c1)c(-c1ccc(C(=O)O)cc1OC(F)(F)F)cn2CC1(C#N)CCC1` [P-0364, 4-(1-((1-cyanocyclobutyl)methyl)-5-(3,5-dimethylisoxazol-4-yl)-1H-pyrrolo[2,3-b]pyridin-3-yl)-3-(trifluoromethoxy)benzoic acid], the IC50 is 0.0001 to 1 µM.

For the origin of these results see patent US11446287B2, “Compounds and methods for EP300 or CBP modulation and indications therefor” (Opna Immuno-Oncology SA, priority 2019, dated 2022).
